Assay results published in patent US11541015B2, “Self-righting systems, methods, and related components” (priority 2017, dated 2023).

Test system: glucose-6-phosphate
Settings: micropost tips 40% G6PD and 60% PEO 200 k, versus uncompressed powder
Protocol: To perform the activity assay on G6PD, an activity assay kit (Sigma Aldrich) was used which measures the amount of oxidized glucose-6-phosphate. […] Duplicate assays were performed on the dissolved solution.

glucose-6-phosphate dehydrogenase was tested, and the “G6PD activity after the manufacturing process” value was “maintain their activity”.
